Earlier results in US20040241252A1, “Pharmaceutical compositions for oral administration comprising lithium carbonate, processes of making the same, and methods of administering the same” (priority 2003, published 2004).

| Compound | time to complete absorption (oral, gastrointestinal tract) | fraction of a single dose eliminated in the urine (single dose) | mean absorption half-time (single liquefied dose, volunteers) [h] |
| --- | --- | --- | --- |
| [Li+] [Li^+, lithium ion] | about 8 hours | Ninety-five |  |
| [Cl-].[Li+] [lithium chloride] |  |  | 0.15 |
